This is an account of results in article PMC10096398, “Discovery of Novel EGFR Inhibitor Targeting Wild-Type and Mutant Forms of EGFR: In Silico and In Vitro Study” (Molecules, 2023).

Structures are written as SMILES. Structures can show the parent of a compound that is named as a salt. Where two headings read alike, the source gives them in different places.

One data set deals with wild-type EGFR (Homo sapiens, UniProt P00533). In words: EGFR inhibitory activity, ADP-Glo kinase assay. The class given is biochemical. The note with it: for IC50: ADP-Glo; for EGFR inhibitory screening: single 1 µM concentration. Background: ADP-Glo first removes unused ATP, then detects ADP through luciferase.
A further data set relates to A549. In words: MTT cell viability assay. The class given is cell-based. The note with it: Homo sapiens, read-out: IC50 (μM) A549. The method, then:
(§1) The cytotoxicity activities of potent PD derivatives obtained from the SIE method against A549 and H1975, as well as Vero (which are adherent cells), were assessed using MTT (3-(4,5-dimethyl-2-thiazolyl)-2,5-diphenyl-2H-tetrazolium bromide) assays. The A549 and Vero cells were grown in complete DMEM medium whereas H1975 cells were grown in complete RPMI medium supplemented with 10% (v/v) FBS, 100 U/mL penicillin and 100 µg/mL streptomycin. All cells were routinely cultured at 37 °C in a 5% (v/v) CO2, 95% (v/v) air humidified incubator. A549 (5 × 10^3 cells per well), H1975 (5 × 10^3 cells per well), and Vero (2 × 10^3 cells per well) cells were seeded into 96-well plates and incubated overnight. After cell attachment, cells were replenished using fresh medium with 0.1% FBS containing various concentrations of potent PD derivatives and known drugs and then incubated at 37 °C for 72 h. After that, fresh medium containing MTT solution (5 mg/mL) was added and incubated at 37 °C. After 3 h, the formed formazan crystal was dissolved with 100 μL of dimethyl sulfoxide (DMSO). Finally, the absorbance of formazan solution was measured at a wavelength 570 nm using a microplate reader (Infinite M200 microplate reader, Tecan, Männedorf, Switzerland). The independent treatments were repeated in triplicate. The IC50 determination of compounds was achieved using GraphPad Prism version 9.0.
For orientation: Tetrazolium assays rely on reduction of a dye to a coloured formazan, in cell work by metabolically active cells.

In a further data set the test system is H1975. In words: MTT cell viability assay. The format is cell-based. The note with it: Homo sapiens, read-out: IC50 (μM) H1975. The method, then: as §1
In a further data set the test system is Vero. In words: MTT cell viability assay, normal cell line. The format is cell-based, monkey. The note with it: 72 h, read-out: IC50 (μM) Vero. The method, then: as §1
The target of a further data set is L858R/T790M/C797S EGFR (Homo sapiens, UniProt P00533, C797S/L858R/T790M). In words: EGFR inhibitory activity, ADP-Glo kinase assay. The format is biochemical.
The target in another data set is L858R/T790M EGFR (Homo sapiens, UniProt P00533, L858R/T790M). In words: EGFR inhibitory activity, ADP-Glo kinase assay. The format is biochemical. The note with it: for IC50: ADP-Glo.
Setting [1] is: Primates, Vero, Vero normal cells, MTT.

As for `Cc1ncc(CN2CCN(Cc3ccccn3)CC2)c2cc(C(=O)c3ccc(Br)cc3)oc12.Cl.Cl` [PD3, (4-Bromophenyl){7-methyl-4-[(4-(pyridin-2-ylmethyl)piperazin-1-yl]methyl}furo[2,3-c]pyridin-2-yl)methanone dihydrochloride], the melting point (as a rule, the temperature, or range, at which the solid turns liquid) fell in the range of 224 to 225 °C.

Consider `Cc1ncc(Cn2cnc(Cl)c2Cl)c2cc(C(=O)c3ccc(Br)cc3)oc12`, for which the melting point was 183 to 185 °C.

`Cc1ncc(CN2CCN(CCC#N)CC2)c2cc(C(=O)c3ccc(Br)cc3)oc12` [PD10, 3-{4-[(2-(4-bromobenzoyl)-7-methylfuro[2,3-c]pyridin-4-yl)methyl]piperazin-1-yl}propanenitrile] returned a melting point of 129 to 132 °C.

Take `Cc1ncc(CN2CCN(Cc3cccnc3)CC2)c2cc(C(=O)c3ccc4c(c3)OCCO4)oc12` (as salt: hydrochloride) [PD13, (2,3-Dihydrobenzo[d][1,4]dioxin-6-yl){7-methyl-4-[(4-(pyridin-3-ylmethyl)piperazin-1-yl)methyl]furo[2,3-c]pyridin-2-yl}methanone dihydrochloride]: the melting point lay within 224 to 227 °C.

`Cc1ncc(CN2CCN(C=O)CC2)c2cc(C(=O)c3ccc(Br)cc3)oc12.Cl` showed a melting point of 233 to 239 °C.

For the molecule `Cc1ncc(CN2CCN(Cc3cccnc3)CC2)c2cc(C(=O)c3ccc4c(c3)OCCO4)oc12` [PD13, (2,3-Dihydrobenzo[d][1,4]dioxin-6-yl){7-methyl-4-[(4-(pyridin-3-ylmethyl)piperazin-1-yl)methyl]furo[2,3-c]pyridin-2-yl}methanone dihydrochloride], the IC50 (in general, the concentration that inhibits the measured activity by half) was 11.6 ± 1.3 nM against wild-type EGFR; 18.1 ± 1.57 µM with A549 (A549, MTT, 72 h); 33.9 ± 0.86 µM in the data set with H1975 (NCI-H1975, H1975, MTT, 72 h); above 100 µM in the data set with Vero (setting [1]); 21.9 ± 1.79 nM against L858R/T790M/C797S EGFR; 10.5 ± 0.71 nM against L858R/T790M EGFR. Further, the EGFR inhibitory screening entry on wild-type EGFR and at L858R/T790M EGFR (single 1 µM concentration) was “active” throughout. Also, at L858R/T790M/C797S EGFR, the “IC50 (nM) L858R/T790M/C797S” value is “double-digit nanomolar range”.

Take `C#Cc1cccc(Nc2ncnc3cc(OCCOC)c(OCCOC)cc23)c1` [Erlotinib]: the concentration for half-maximal inhibition (IC50) was 19.4 ± 0.79 µM in the data set with A549 (A549, 72 h); 41.8 ± 2.19 µM in the data set on H1975 (NCI-H1975, 72 h); above 30 µM with Vero (Primates, Vero).

On to `CN(C)C/C=C/C(=O)Nc1cc2c(Nc3ccc(F)c(Cl)c3)ncnc2cc1O[C@H]1CCOC1` [Afatinib], for which the half-inhibitory concentration (IC50) in the data set on A549 (A549, 72 h) is 34.7 ± 0.67 µM; in the data set on H1975 (NCI-H1975, 72 h) it was 27.3 ± 1.87 µM; in the data set on Vero (Primates, Vero), above 50 µM.

The molecule `COc1ccc(C(=O)c2cc3c(CO)cnc(C)c3o2)cc1` [PD1, [4-Hydroxymethyl-7-methylfuro[2,3-c]pyridin-2-yl](4-methoxyphenyl)methanone] registered a melting point of 147 to 148 °C.

Consider `Cc1ncc(Cn2ccnc2)c2cc(C(=O)c3ccc(Br)cc3)oc12.Cl`, for which the melting point is 278 to 280 °C.

On to `Cc1ncc(CN2CCN(Cc3cccnc3)CC2)c2cc(C(=O)c3ccc(Br)cc3)oc12.Cl.Cl` [PD4, (4-Bromophenyl){7-methyl-4-[(4-(pyridin-3-ylmethyl)piperazin-1-yl]methyl}furo[2,3-c]pyridin-2-yl)methanone dihydrochloride], for which the melting point lay in the range of 243 to 247 °C. Moreover, on wild-type EGFR, the IC50 was found to be 4.78 ± 0.73 nM and the EGFR inhibitory screening result is “only against wild-type EGFR”. The “EGFR inhibitory activity compared to erlotinib” value at wild-type EGFR (ratio of IC50 values) is given as above 2 fold. In the data set with A549 (A549, MTT, 72 h), the IC50 was found to be 19.7 ± 0.59 µM. In addition, in the data set with H1975 (NCI-H1975, H1975, MTT, 72 h), the IC50 was 27.3 ± 1.02 µM. In addition, in the data set with Vero (setting [1]), the IC50 was below 100 µM. For the same molecule, the IC50 in the data set with Vero (Vero normal cells, MTT) was above 50 µM. Also, the IC50 on L858R/T790M/C797S EGFR was 104 ± 3.62 nM. The same molecule registered an IC50 against L858R/T790M EGFR of 91 ± 2.01 nM.

In the case of `C=CC(=O)Nc1cc(Nc2nccc(-c3cn(C)c4ccccc34)n2)c(OC)cc1N(C)CCN(C)C` [Osimertinib], the IC50 with A549 (A549, 72 h) is 25.3 ± 1.21 µM; in the data set with H1975 (NCI-H1975, 72 h), 18.3 ± 2 µM; in the data set on Vero (Primates, Vero) it was above 50 µM.
